Legend:
[1] = target: Bcl-2 (Homo sapiens, UniProt P10415); experiment: Bcl-2 binding affinity analysis (fluorescence polarization binding assay)
From the text: (§1) Bcl-2 and Bcl-xL binding can be determined using a variety of known methods. One such assay is a sensitive and quantitative in vitro binding assay using fluorescence polarization (FP) described by Wang, J. -L.; Zhang, Z -J.; Choksi, S.; Sjam. S.; Lu, Z.; Croce, C. M.; Alnenri, E. S.; Komgold, R.; Huang, Z. Cell permeable Bcl-2 binding peptides: a chemical approach to apoptosis induction in tumor cells. Cancer Res. 2000, 60, 1498-1502).
(§2) Bcl-2 and Bcl-xL binding affinity analysis data is presented below for various compounds of the invention.

[2] = target: Bcl-xL (Homo sapiens, UniProt Q07817); experiment: Bcl-xL binding affinity analysis (fluorescence polarization binding assay); parameters: scale not given here
From the text: as §1, §2

Sequence of Bcl-xL (Q07817 whole entry): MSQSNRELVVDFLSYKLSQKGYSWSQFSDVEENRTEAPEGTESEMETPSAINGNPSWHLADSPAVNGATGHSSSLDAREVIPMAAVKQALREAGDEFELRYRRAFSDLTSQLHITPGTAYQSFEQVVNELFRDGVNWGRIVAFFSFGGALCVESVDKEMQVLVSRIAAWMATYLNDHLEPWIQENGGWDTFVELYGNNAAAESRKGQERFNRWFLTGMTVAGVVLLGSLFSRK
Sequence of Bcl-2 (P10415 whole entry): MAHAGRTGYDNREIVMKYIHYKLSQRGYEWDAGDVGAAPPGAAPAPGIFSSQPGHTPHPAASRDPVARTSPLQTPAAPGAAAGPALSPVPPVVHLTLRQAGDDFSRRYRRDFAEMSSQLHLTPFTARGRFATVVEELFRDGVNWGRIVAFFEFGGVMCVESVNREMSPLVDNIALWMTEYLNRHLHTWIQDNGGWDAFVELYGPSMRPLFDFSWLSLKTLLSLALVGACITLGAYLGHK

Ki [1]	Bcl-XL binding affinity Ki [2]	SMILES
< 800 nM	♯	COCCOCCOc1cccc(CN(CCN(C)C)Cc2cccc(CN3OC(CO)C(C(C)O)C3C(=O)NC3CC4CC(C3C)C4(C)C)c2)c1 (centres unmarked) [Compound 407]
6000 to 50000 nM	♯	C[C@H](O)[C@@H]1[C@H](CO)ON(Cc2cccc(CN(CCN(C)C)Cc3ccccc3)c2)[C@@H]1C(=O)NC1CCN(C(=O)OC(C)(C)C)CC1 [Compound 528]
6000 to 50000 nM	♯	C[C@@H](O)[C@H]1[C@@H](CO)ON(Cc2cccc(C#CCCCCl)c2)[C@H]1C(=O)NCCCN(C)c1ccccc1 [Compound 44]
< 800 nM	♯	CC(O)C1C(CO)ON(Cc2cccc(C(=O)NCCc3ccccc3)c2)C1C(=O)NC1CC2CC(C1C)C2(C)C (centres unmarked) [Compound 503]
< 800 nM	♯	CC(O)C1C(CO)ON(Cc2cccc(CN3Cc4ccccc4C3C(=O)N(C)C)c2)C1C(=O)NC1CC2CC(C1C)C2(C)C (centres unmarked) [Compound 469]
800 to 6000 nM	♯	C[C@H](O)[C@@H]1[C@H](CO)ON(Cc2cccc(CN(CCN(C)C)Cc3ccccc3)c2)[C@@H]1C(=O)NCC(c1ccccc1)c1ccccc1 [Compound 520]
< 800 nM	♯♯	C[C@@H]1[C@@H](NC(=O)[C@@H]2[C@H]([C@H](C)O)[C@H](CO)ON2Cc2cccc(-c3cccc(C(=O)N4CC[C@@H](N(C)C)C4)c3)c2)C[C@H]2C[C@@H]1C2(C)C [Compound 152]
< 800 nM	♯	C[C@@H]1[C@@H](NC(=O)[C@@H]2[C@H]([C@H](C)O)[C@H](CO)ON2Cc2cccc(-c3cccc(C(=O)NCCCN4CCCCC4)c3)c2)C[C@H]2C[C@@H]1C2(C)C [Compound 111]
800 to 6000 nM	♯♯	C[C@@H]1[C@@H](NC(=O)[C@@H]2C([C@H](C)O)[C@H](CO)ON2Cc2cccc(C#CC(C)(O)c3ccccc3)c2)C[C@H]2C[C@@H]1C2(C)C (some centres unmarked) [Compound 43]
< 800 nM	♯	COc1c(CN2O[C@@H](CO)[C@@H]([C@H](C)O)[C@H]2C(=O)N[C@H]2C[C@H]3C[C@@H]([C@@H]2C)C3(C)C)cccc1-c1ccc(C(=O)N(C)C)cc1 [Compound 174]
6000 to 50000 nM	♯	C[C@H](O)[C@@H]1[C@H](CO)ON(Cc2cccc(C#CC3(N)CCCCC3)c2)[C@@H]1C(=O)NCCCN(C)c1ccccc1 [Compound 28]
800 to 6000 nM	♯	C[C@H](NC(=O)[C@@H]1[C@H]([C@H](C)O)[C@H](CO)ON1Cc1cccc(CN(CCN(C)C)Cc2ccccc2)c1)c1ccc2ccccc2c1 [Compound 521]
< 800 nM	♯	CC(O)C1C(CO)ON(Cc2cccc(C(=O)N(CCN(C)C)Cc3ccccc3)c2)C1C(=O)NC1CC2CC(C1C)C2(C)C (centres unmarked) [Compound 504]
< 800 nM	♯	C[C@@H]1[C@@H](NC(=O)[C@@H]2[C@H]([C@H](C)O)[C@H](CO)ON2Cc2cccc(-c3ccc(C(=O)N(C)C)c([N+](=O)[O-])c3)c2)C[C@H]2C[C@@H]1C2(C)C [Compound 136]
6000 to 50000 nM	♯	CC(C)=CCC/C(C)=C/CNC(=O)[C@H]1[C@@H]([C@@H](C)O)[C@@H](CO)ON1Cc1cccc(C#CC(C)(O)c2ccccc2)c1 (some centres unmarked) [Compound 45]
< 800 nM	♯	CC(O)C1C(CO)ON(Cc2cccc(CN(CCN(C)C)CC3CC=CCC3)c2)C1C(=O)NC1CC2CC(C1C)C2(C)C (centres unmarked) [Compound 350]
< 800 nM	♯	C[C@@H]1[C@@H](NC(=O)[C@@H]2[C@H]([C@H](C)O)[C@H](CO)ON2Cc2cccc(-c3ccc(C(=O)N(CCN(C)C)Cc4ccccc4)cc3)c2)C[C@H]2C[C@@H]1C2(C)C [Compound 185]
800 to 6000 nM	♯	C[C@H](O)[C@@H]1[C@H](CO)ON(Cc2cccc(CN(CCN(C)C)Cc3ccccc3)c2)[C@@H]1C(=O)NCCCCc1ccccc1 [Compound 519]
< 800 nM	♯	CCC(C)C(CN(C)C)N(Cc1cccc(CN2OC(CO)C(C(C)O)C2C(=O)NC2CC3CC(C2C)C3(C)C)c1)Cc1c(O)cccc1F (centres unmarked) [Compound 440]
< 800 nM	♯	C[C@H](O)[C@@H]1[C@H](CO)ON(Cc2cccc(N3CCN(C(=O)N(C)C)CC3)c2)[C@@H]1C(=O)NC1C[C@H]2C[C@@H]([C@@H]1C)C2(C)C (some centres unmarked) [Compound 291]
800 to 6000 nM	♯	CC(C)C[C@@H](CN(C)C)N(Cc1ccccc1)Cc1cccc(CN2O[C@@H](CO)[C@@H]([C@H](C)O)[C@H]2C(=O)NCc2cccc(-c3ccccc3)c2)c1 [Compound 537]
< 800 nM	♯	C[C@@H]1[C@@H](NC(=O)[C@@H]2[C@H]([C@H](C)O)[C@H](CO)ON2Cc2cccc(CN(CCCc3ccccc3)CCN(C)C)c2)C[C@H]2C[C@@H]1C2(C)C [Compound 205]

Ki [1]	Bcl-XL binding affinity Ki [2]	SMILES
< 800 nM	♯	C[C@@H]1[C@@H](NC(=O)[C@@H]2[C@H]([C@H](C)O)[C@H](CO)ON2Cc2cccc(-c3cccc(C(=O)NC[C@@H]4CCCN4C)c3)c2)C[C@H]2C[C@@H]1C2(C)C [Compound 104]
800 to 6000 nM	♯♯	C[C@@H]1[C@@H](NC(=O)[C@@H]2C([C@H](C)O)[C@H](CO)ON2Cc2ccc(C#CC3(N)CCCCC3)cc2)C[C@H]2C[C@@H]1C2(C)C (some centres unmarked) [Compound 30]
< 800 nM	♯	CC(O)C1C(CO)ON(Cc2cccc(CNC(Cc3ccccc3)CN(C)C)c2)C1C(=O)NC1CC2CC(C1C)C2(C)C (centres unmarked) [Compound 467]
800 to 6000 nM	♯	C[C@H](O)[C@@H]1[C@H](CO)ON(Cc2cccc(CN(CCN(C)C)Cc3ccccc3)c2)[C@@H]1C(=O)NCCc1cccc(Br)c1 [Compound 514]
< 800 nM	♯	CC(O)C1C(CO)ON(Cc2cccc(CN(CCN(C)C)Cc3ccccc3-c3ccc(F)cc3)c2)C1C(=O)NC1CC2CC(C1C)C2(C)C (centres unmarked) [Compound 341]
< 800 nM	♯	CCCNC(=O)c1ccc(-c2cccc(CN3O[C@@H](CO)[C@@H]([C@H](C)O)[C@H]3C(=O)N[C@H]3C[C@H]4C[C@@H]([C@@H]3C)C4(C)C)c2)cc1 [Compound 299]
< 800 nM	♯	COc1ccc(Br)cc1CN(Cc1cccc(CN2OC(CO)C(C(C)O)C2C(=O)NC2CC3CC(C2C)C3(C)C)c1)C(CC(C)C)CN(C)C (centres unmarked) [Compound 335]
< 800 nM	♯	CC(CN(C)C)NC(=O)c1cccc(-c2cccc(CN3O[C@@H](CO)[C@@H]([C@H](C)O)[C@H]3C(=O)N[C@H]3C[C@H]4C[C@@H]([C@@H]3C)C4(C)C)c2)c1 (some centres unmarked) [Compound 110]
800 to 6000 nM	♯♯	C[C@@H](O)[C@H]1[C@@H](CO)ON(Cc2cccc(C#CC(O)c3ccoc3)c2)[C@H]1C(=O)NCCCN(C)c1ccccc1 (some centres unmarked) [Compound 36]
< 800 nM	♯♯	C[C@@H]1[C@@H](NC(=O)[C@@H]2[C@H]([C@H](C)O)[C@H](CO)ON2Cc2cccc(-c3cccc(O)c3)c2)C[C@H]2C[C@@H]1C2(C)C [Compound 147]
< 800 nM	♯	CC(O)C1C(CO)ON(Cc2cccc(CNC(CCc3ccccc3)CN(C)C)c2)C1C(=O)NC1CC2CC(C1C)C2(C)C (centres unmarked) [Compound 468]
< 800 nM	♯♯	C[C@@H]1[C@@H](NC(=O)[C@@H]2[C@H]([C@H](C)O)[C@H](CO)ON2Cc2cccc(-c3cccc(C(=O)N4CCCN(C)CC4)c3)c2)C[C@H]2C[C@@H]1C2(C)C [Compound 125]
< 800 nM	♯	CC(O)C1C(CO)ON(Cc2cccc(CN(CCN(C)C)Cc3ccccc3-c3ccc(Cl)cc3)c2)C1C(=O)NC1CC2CC(C1C)C2(C)C (centres unmarked) [Compound 409]
< 800 nM	♯♯	C[C@@H]1[C@@H](NC(=O)[C@@H]2[C@H]([C@H](C)O)[C@H](CO)ON2Cc2cccc(-c3cccc(C(=O)NCCCNC(=O)OC(C)(C)C)c3)c2)C[C@H]2C[C@@H]1C2(C)C [Compound 154]
< 800 nM	♯♯	C[C@@H]1C(NC(=O)[C@@H]2[C@H]([C@H](C)O)[C@H](CO)ON2Cc2cccc(-c3ccc(NC(=O)N(C)C)cc3)c2)C[C@@H]2CC1C2(C)C (some centres unmarked) [Compound 283]
< 800 nM	♯	Cc1ccccc1CN(CCN(C)C)Cc1cccc(CN2OC(CO)C(C(C)O)C2C(=O)NC2CC3CC(C2C)C3(C)C)c1 (centres unmarked) [Compound 372]
< 800 nM	♯♯	C[C@@H]1[C@@H](NC(=O)[C@@H]2[C@H]([C@H](C)O)[C@H](CO)ON2Cc2cccc(-c3ccc(-n4ccnc4)cc3)c2)C[C@H]2C[C@@H]1C2(C)C [Compound 117]
800 to 6000 nM	♯	CC(O)[C@H]1[C@@H](CO)ON(Cc2cccc(C#CC(O)c3ccc(F)cc3)c2)[C@H]1C(=O)NCCCN(C)c1ccccc1 (some centres unmarked) [Compound 29]
< 800 nM	♯	CC(O)C1C(CO)ON(Cc2cccc(CN(CCN(C)C)Cc3ccccc3N3CCOCC3)c2)C1C(=O)NC1CC2CC(C1C)C2(C)C (centres unmarked) [Compound 364]
< 800 nM	♯	C[C@@H]1[C@@H](NC(=O)[C@@H]2[C@H]([C@H](C)O)[C@H](CO)ON2Cc2cccc(-c3cccc(C(=O)NCCCn4ccnc4)c3)c2)C[C@H]2C[C@@H]1C2(C)C [Compound 123]
< 800 nM	♯♯	C[C@@H]1[C@@H](NC(=O)[C@@H]2[C@H]([C@H](C)O)[C@H](CO)ON2Cc2cccc(-c3cccc(C(=O)N4CC[C@H](N(C)C)C4)c3)c2)C[C@H]2C[C@@H]1C2(C)C [Compound 119]

Reference: patent US7851637B2, “Compounds and methods for inhibiting the interaction of BCL proteins with binding partners” (Infinity Pharmaceuticals, Inc., priority 2004, dated 2010)
